The test system of data set [1] is HBV (HepG2.117 cell line, inducibly HBV producing). The data set is described as follows: Anti-HBV activity: intracellular HBV DNA by real-time PCR in HepG2.117 cells after 3 days of treatment. It counts as cell-based, hepatitis B virus. As to conditions: Hepatitis B virus, HepG2.117, 72 h, HepG2.117 cells, 3 days of treatment, intracellular HBV DNA by real-time PCR; mean value; read-out: EC50 (μM, mean value). The essentials:
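Antiviral effect is expressed through intracellular HBV DNA levels, determined by real-time PCR with a virus-specific probe. These levels were measured after 3 days of treatment with compound dilutions, in HepG2.117 cells induced to replicate HBV.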
A general note: In qPCR the cycle at which signal appears reflects the starting amount.

A short description of the next data set: in vitro. In kind it is cell-based. The settings on record: human, HepG2 or HepG2.117 cells, 3-days incubation (unmarked values), ATPlite; mean value. The essentials:
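Luminescent ATP quantitation served as the viability endpoint following a 3- or 4-day incubation with test compounds.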
(In ATP-based viability assays light output follows the ATP content of the culture.)

A word on the EC50: it is the midpoint of the concentration-response curve. As usually defined, the CC50 is the concentration that lowers cell viability or growth by half. As for `CC(C)Nc1nc2c(c(=O)n1-c1ccc(-c3ncccn3)cc1)CCN(C(=O)c1ccc(Cl)c(Cl)c1)C2` [Compound C187, 7-(3,4-dichlorobenzoyl)-2-[(propan-2-yl)amino]-3-[4-(pyrimidin-2-yl)phenyl]-5,6,7,8-tetrahydropyrido[3,4-d]pyrimidin-4(3H)-one], the EC50 in data set [1] was determined as 0.71 µM. The compound also had a cytotoxic concentration (CC50) at 3 days in “in vitro” above 45 µM.

For the compound `CC(C)Nc1nc2c(c(=O)n1-c1ccc(-c3cncs3)cc1)CCN(C(=O)c1ccc(Cl)c(Cl)c1)C2` [Compound C188, 7-(3,4-dichlorobenzoyl)-2-[(propan-2-yl)amino]-3-[4-(1,3-thiazol-5-yl)phenyl]-5,6,7,8-tetrahydropyrido[3,4-d]pyrimidin-4(3H)-one], the EC50 in data set [1] stood at 0.51 µM. The CC50 at 3 days in “in vitro” is above 50 µM.

In the case of `CC(C)Nc1nc2c(c(=O)n1-c1ccc(-c3ccn4ccnc4c3)cc1)C[C@@H](C)N(C(=O)c1ccc(Cl)c(Cl)c1)C2` [Compound C189, (6R)-7-(3,4-dichlorobenzoyl)-3-[4-(imidazo[1,2-a]pyridin-7-yl)phenyl]-6-methyl-2-[(propan-2-yl)amino]-5,6,7,8-tetrahydropyrido[3,4-d]pyrimidin-4(3H)-one], the EC50 in data set [1] turned out to be 0.1 µM. This compound displayed a CC50 at 3 days in the data set “in vitro” of 9.8 µM.

Turning to `CC(C)Nc1nc2c(c(=O)n1-c1ccc(NC3COC3)cc1)C[C@@H](C)N(C(=O)c1ccc(Cl)c(Cl)c1)C2` [Compound C190, (6R)-7-(3,4-dichlorobenzoyl)-6-methyl-3-{4-[(oxetan-3-yl)amino]phenyl}-2-[(propan-2-yl)amino]-5,6,7,8-tetrahydropyrido[3,4-d]pyrimidin-4(3H)-one], the EC50 in data set [1] was 0.18 µM. Moreover, in the data set “in vitro”, the CC50 at 3 days is above 50 µM.

As to `CC(C)Nc1nc2c(c(=O)n1-c1ccc(S(C)(=O)=O)cc1)CCN(C(=O)c1ccc(Cl)c(C(F)(F)F)c1)C2` [Compound C191, 7-[4-chloro-3-(trifluoromethyl)benzoyl]-3-[4-(methanesulfonyl)phenyl]-2-[(propan-2-yl)amino]-5,6,7,8-tetrahydropyrido[3,4-d]pyrimidin-4(3H)-one], in data set [1], the concentration for a half-maximal effect (EC50) is 0.4 µM. In “in vitro”, this compound gave a half-maximal cytotoxic concentration (CC50) at 3 days above 50 µM.

Consider `CC(C)Nc1nc2c(c(=O)n1-c1ccc(-c3nccn3C)cc1)C[C@@H](C)N(C(=O)c1ccc(Cl)c(Cl)c1)C2` [Compound C192, (6R)-7-(3,4-dichlorobenzoyl)-6-methyl-3-[4-(1-methyl-1H-imidazol-2-yl)phenyl]-2-[(propan-2-yl)amino]-5,6,7,8-tetrahydropyrido[3,4-d]pyrimidin-4(3H)-one], for which the EC50 in data set [1] came to 0.13 µM. In “in vitro”, the CC50 at 3 days was 36.1 µM.

Turning to `CCc1cc(C(=O)N2CCc3c(nc(NC(C)C)n(-c4ccc(S(C)(=O)=O)cc4)c3=O)C2)ccc1Cl` [Compound C193, 7-(4-chloro-3-ethylbenzoyl)-3-[4-(methanesulfonyl)phenyl]-2-[(propan-2-yl)amino]-5,6,7,8-tetrahydropyrido[3,4-d]pyrimidin-4(3H)-one], the concentration giving a half-maximal response (EC50) in data set [1] came to 0.62 µM. This compound also yielded a 50% cytotoxic concentration (CC50) at 3 days in the data set “in vitro” above 50 µM.

For `CC(C)Nc1nc2c(c(=O)n1-c1ccc(S(C)(=O)=O)cc1)CCN(C(=O)c1ccc(C(F)(F)F)c(Cl)c1)C2` [Compound C194, 7-[3-chloro-4-(trifluoromethyl)benzoyl]-3-[4-(methanesulfonyl)phenyl]-2-[(propan-2-yl)amino]-5,6,7,8-tetrahydropyrido[3,4-d]pyrimidin-4(3H)-one], the concentration giving a half-maximal response (EC50) in data set [1] was determined as 0.55 µM. The same compound gave a 50% cytotoxic concentration (CC50) at 3 days in “in vitro” above 50 µM.

Take `CC(C)Nc1nc2c(c(=O)n1-c1ccc(C(N)=O)cc1)C[C@@H](C)N(C(=O)c1ccc(Cl)c(Cl)c1)C2` [Compound C195, 4-[(6R)-7-(3,4-dichlorobenzoyl)-6-methyl-4-oxo-2-[(propan-2-yl)amino]-5,6,7,8-tetrahydropyrido[3,4-d]pyrimidin-3(4H)-yl]benzamide]: the EC50 in data set [1] was determined as 0.16 µM. The compound further gave a cytotoxic concentration (CC50) at 3 days in the data set “in vitro” above 50 µM.

With `CC(C)Nc1nc2c(c(=O)n1-c1ccc(-c3ncc[nH]3)cc1)C[C@@H](C)N(C(=O)c1ccc(Cl)c(Cl)c1)C2` [Compound C196, (6R)-7-(3,4-dichlorobenzoyl)-3-[4-(1H-imidazol-2-yl)phenyl]-6-methyl-2-[(propan-2-yl)amino]-5,6,7,8-tetrahydropyrido[3,4-d]pyrimidin-4(3H)-one], the EC50 in data set [1] was 0.17 µM. In addition, in “in vitro”, the CC50 at 3 days is above 43 µM.

Take `CC(C)Nc1nc2c(c(=O)n1-c1ccc(C(=O)NCCN)cc1)C[C@@H](C)N(C(=O)c1ccc(Cl)c(Cl)c1)C2` [Compound C197, N-(2-aminoethyl)-4-[(6R)-7-(3,4-dichlorobenzoyl)-6-methyl-4-oxo-2-[(propan-2-yl)amino]-5,6,7,8-tetrahydropyrido[3,4-d]pyrimidin-3(4H)-yl]benzamide]: the 50% effective concentration (EC50) in data set [1] was 1.81 µM. The CC50 at 3 days in “in vitro” was above 50 µM.

`C[C@@H]1Cc2c(nc(NC3(c4ccncc4)CC3)n(-c3ccc(S(C)(=O)=O)cc3)c2=O)CN1C(=O)c1ccc(Cl)c(Cl)c1` [Compound C198, (6R)-7-(3,4-dichlorobenzoyl)-3-[4-(methanesulfonyl)phenyl]-6-methyl-2-{[1-(pyridin-4-yl)cyclopropyl]amino}-5,6,7,8-tetrahydropyrido[3,4-d]pyrimidin-4(3H)-one]: the concentration for a half-maximal effect (EC50) in data set [1] worked out at 3.25 µM. The compound also displayed a cytotoxic concentration (CC50) at 3 days in “in vitro” above 50 µM.

Take `CC(Nc1nc2c(c(=O)n1-c1ccc(S(C)(=O)=O)cc1)C[C@@H](C)N(C(=O)c1ccc(Cl)c(Cl)c1)C2)C1CC1` (stereo partly drawn) [Compound C199, (6R)-2-[(1-cyclopropylethyl)amino]-7-(3,4-dichlorobenzoyl)-3-[4-(methanesulfonyl)phenyl]-6-methyl-5,6,7,8-tetrahydropyrido[3,4-d]pyrimidin-4(3H)-one]: the EC50 in data set [1] came to 0.3 µM. In addition, the CC50 at 3 days in the data set “in vitro” was above 50 µM.

For the compound `CC(C)Nc1nc2c(c(=O)n1-c1ccc(N3CC[C@H](O)C3)cc1)C[C@@H](C)N(C(=O)c1ccc(Cl)c(Cl)c1)C2` [Compound C200, (6R)-7-(3,4-dichlorobenzoyl)-3-{4-[(3S)-3-hydroxypyrrolidin-1-yl]phenyl}-6-methyl-2-[(propan-2-yl)amino]-5,6,7,8-tetrahydropyrido[3,4-d]pyrimidin-4(3H)-one], the concentration for a half-maximal effect (EC50) in data set [1] was determined as 0.2 µM. Also, half-maximal cytotoxicity in “in vitro” (CC50 at 3 days) was put at 35.4 µM.

In the case of `CC(C)Nc1nc2c(c(=O)n1-c1ccc(N3CC[C@@H](O)C3)cc1)C[C@@H](C)N(C(=O)c1ccc(Cl)c(Cl)c1)C2` [Compound C201, (6R)-7-(3,4-dichlorobenzoyl)-3-{4-[(3R)-3-hydroxypyrrolidin-1-yl]phenyl}-6-methyl-2-[(propan-2-yl)amino]-5,6,7,8-tetrahydropyrido[3,4-d]pyrimidin-4(3H)-one], the EC50 in data set [1] worked out at 0.2 µM. Also, the midpoint of cytotoxicity in “in vitro”, the CC50 at 3 days, lay at 36.8 µM.

In the case of `CC(C)Nc1nc2c(c(=O)n1-c1ccc(N3CC(=O)N(C)C3)cc1)C[C@@H](C)N(C(=O)c1ccc(Cl)c(Cl)c1)C2` [Compound C202, (6R)-7-(3,4-dichlorobenzoyl)-6-methyl-3-[4-(3-methyl-4-oxoimidazolidin-1-yl)phenyl]-2-[(propan-2-yl)amino]-5,6,7,8-tetrahydropyrido[3,4-d]pyrimidin-4(3H)-one], the EC50 in data set [1] came out at 0.19 µM. The compound also returned a CC50 at 3 days in the data set “in vitro” above 50 µM.

With `CC(C)Nc1nc2c(c(=O)n1-c1ccc(C(=O)NCCN3CCOCC3)cc1)C[C@@H](C)N(C(=O)c1ccc(Cl)c(Cl)c1)C2` [Compound C203, 4-[(6R)-7-(3,4-dichlorobenzoyl)-6-methyl-4-oxo-2-[(propan-2-yl)amino]-5,6,7,8-tetrahydropyrido[3,4-d]pyrimidin-3(4H)-yl]-N-[2-(morpholin-4-yl)ethyl]benzamide], in data set [1], the EC50 was determined as 0.15 µM. The same compound gave a CC50 at 3 days in “in vitro” above 50 µM.

Take `CC(C)Nc1nc2c(c(=O)n1-c1ccc(C(=O)NCCO)cc1)C[C@@H](C)N(C(=O)c1ccc(Cl)c(Cl)c1)C2` [Compound C204, 4-[(6R)-7-(3,4-dichlorobenzoyl)-6-methyl-4-oxo-2-[(propan-2-yl)amino]-5,6,7,8-tetrahydropyrido[3,4-d]pyrimidin-3(4H)-yl]-N-(2-hydroxyethyl)benzamide]: the EC50 in data set [1] turned out to be 0.54 µM. For the same compound, in the data set “in vitro”, the CC50 at 3 days was above 50 µM.

Regarding `COCCNC(=O)c1ccc(-n2c(NC(C)C)nc3c(c2=O)C[C@@H](C)N(C(=O)c2ccc(Cl)c(Cl)c2)C3)cc1` [Compound C205, 4-[(6R)-7-(3,4-dichlorobenzoyl)-6-methyl-4-oxo-2-[(propan-2-yl)amino]-5,6,7,8-tetrahydropyrido[3,4-d]pyrimidin-3(4H)-yl]-N-(2-methoxyethyl)benzamide], in data set [1], the 50% effective concentration (EC50) was determined as 0.13 µM. Moreover, the CC50 at 3 days in the data set “in vitro” is above 50 µM.

Consider `CC(C)Nc1nc2c(c(=O)n1-c1ccc3c(c1)CC(=O)N3)C[C@@H](C)N(C(=O)c1ccc(Cl)c(Cl)c1)C2` [Compound C206, (6R)-7-(3,4-dichlorobenzoyl)-6-methyl-3-(2-oxo-2,3-dihydro-1H-indol-5-yl)-2-[(propan-2-yl)amino]-5,6,7,8-tetrahydropyrido[3,4-d]pyrimidin-4(3H)-one], for which the half-maximal effective concentration (EC50) in data set [1] was 0.16 µM. The compound also returned a CC50 at 3 days in “in vitro” of 48.9 µM.

With `C[C@@H]1Cc2c(nc(NC(C)(C)c3cnn(C)c3)n(-c3ccc(S(C)(=O)=O)cc3)c2=O)CN1C(=O)c1ccc(Cl)c(Cl)c1` [Compound C207, (6R)-7-(3,4-dichlorobenzoyl)-3-[4-(methanesulfonyl)phenyl]-6-methyl-2-{[2-(1-methyl-1H-pyrazol-4-yl)propan-2-yl]amino}-5,6,7,8-tetrahydropyrido[3,4-d]pyrimidin-4(3H)-one], in data set [1], the EC50 came out at 0.59 µM. The CC50 at 3 days in “in vitro” is above 50 µM.

These data come from patent US20230091047A1 (priority 2019, published 2023).
